Laboratory results taken from PMC7460216 (Marine Drugs, 2020).
pIC50: −log10 of the molar value. Read-outs that look alike come from different tables or passages of the source. Values belong to the compound of their own block, whether it stands above or below them.

How the values were obtained:
[1] = system: Leishmania donovani; test: Antiparasitic assay, Leishmania donovani; type: cell-based; conditions: for pIC50: mean of duplicate assays, read-out: L. Don. IC50
Text: (§1) The set of compounds were screened against a panel of four parasitic protozoa: Trypanosoma brucei rhodesiense, Trypanosoma cruzi, Leishmania donovani and Plasmodium falciparum K1 dual drug-resistant strain.
(§2) Detailed protocols for these assays have been described elsewhere.

[2] = system: Trypanosoma cruzi; test: Antiparasitic assay, Trypanosoma cruzi; type: cell-based; conditions: for pIC50: mean of duplicate assays, read-out: T. Cruzi IC50
Text: as §1, §2

[3] = system: Plasmodium falciparum K1 dual drug-resistant strain; test: Antiparasitic assay, Plasmodium falciparum K1; type: cell-based; conditions: for SI Pf, antiplasmodial selectivity index = L6 IC50/P f. IC50: L6 versus P. falciparum K1
Text: as §1, §2

[4] = system: Trypanosoma brucei rhodesiense; test: Antiparasitic assay, Trypanosoma brucei rhodesiense; type: cell-based; conditions: for pIC50: read-out: T. B. Rhod. IC50
Text: as §1, §2

[5] = cited from earlier work
[6] = L6 cytotoxicity assay; type: cell-based, rat; conditions: rat, mean of duplicate assays
[7] = system: panel of human tumour cell lines (NCI 60 cell-line panel); test: cells; conditions: for tumour cell mean growth: preliminary single dose (10 μM) testing
Text: Protocols of testing at the DTP, NCI have been described elsewhere.

[8] = system: Plasmodium falciparum (Pf) D6 clone; parameters: method as in PMID 20337497; conditions: cited from earlier work
[9] = system: L6 rat skeletal myoblast cell line; test: L6 cytotoxicity assay; type: cell-based
[10] = system: Vero cell line; parameters: method as in PMID 20337497; conditions: cited from earlier work
[11] = system: Pf W2 clone; conditions: cited from earlier work
[12] = system: human colon tumour cell line HCT-116; conditions: read-out: HCT-116 IC50 (cytotoxicity); cited from earlier work
[13] = system: non-malignant human keratinocyte cell line; parameters: method as in PMID 32054048; conditions: read-out: human keratinocyte cell line IC50 (cytotoxicity); cited from earlier work
[14] = Leishmania donovani, read-out: L. Don. % inhibition
[15] = Trypanosoma cruzi, read-out: T. Cruzi % inhibition
[16] = Plasmodium falciparum, K1, read-out: P. Falc. K1 % inhibition
[17] = Trypanosoma brucei, RHODESIENSE
[18] = Plasmodium falciparum, K1, read-out: P. Falc. K1 IC50
[19] = Trypanosoma brucei, RHODESIENSE, mean of duplicate assays

Compound: discorhabdin U [Compound 15]
- L. Don. % inhibition ([1]; at 1.5 μM): 97% (1.5)
- T. Cruzi % inhibition ([2]; at 1.5 μM): 100% (1.5)
- P. Falc. K1 % inhibition ([3]; at 1.5 μM): 100% (1.5)
- T. B. Rhod. % inhibition ([4]; at 1.5 μM): 100% (1.5)

Compound: O=C1C=C2S[C@H]3C[C@]2(C=C1Br)C1=C(N3)C(=O)c2[nH]cc3c2C1=NCC3 [Compound 1, (+)-discorhabdin B]
- inhibition at 1.5 µM [1, 14]: 57%
- inhibition at 1.5 µM [2, 15]: 100%
- inhibition at 1.5 µM [3, 16]: 100%
- inhibition at 1.5 µM ([4]; Trypanosoma brucei, RHODESIENSE, read-out: T. B. Rhod. % inhibition): 99%
- cytotoxicity (in words, Figure 9) [5]: Cytotoxic

Compound: O=C1C2=C3C4=[N+](CCc5c[nH]c1c54)[C@@H]1C(=O)C=C4S[C@@H](C[C@@]43C1O)N2 (stereo partly shown) [Compound 14]
- inhibition at 1.9 µM [1, 14]: 20%
- pIC50 [6]: 4.96
- inhibition at 12 µM [2, 15]: 9%
- inhibition at 1.9 µM [3, 16]: 20%
- pIC50 [4, 17]: 5.89

Compound: CCCCCSC1=CC(=O)C(Br)=CC12CCNC1=C2C2=NCCc3c[nH]c(c32)C1=O (stereo not shown) [Compound 4, Thiopentanyl-Discorhabdin C Adduct]
- GI50 ([7]; Homo sapiens, read-out: GI50 (50% growth inhibition)): 1400 nM
- CC50 ([7]; Homo sapiens, read-out: LC50 (50% cell kill)): 10500 nM
- TGI (total growth inhibition) ([7]; averaged calculated mean over panel, two experiments at the NCI): 3900 nM

Compound: O=C1C2=C(C3=NCCc4c[nH]c1c43)C1(C=C(Br)C(O)C(Br)=C1)CCN2 (stereo not shown) [Compound 9, 3-dihydrodiscorhabdin C]
- pIC50 [8]: 6.77
- pIC50 [9]: 6.96
- pIC50 [10]: 5.01
- pIC50 ([3]; mean of duplicate assays, read-out: P. Falc. K1 IC50): 6.40
- pIC50 [11]: 6.89

Compound: O=C1C2=C(C3=NCCc4c[nH]c1c43)c1c(cc(Br)c(O)c1Br)CCN2 [Compound 17]
- inhibition at 0.8 µM ([1]; Leishmania donovani, at 0.8 μM, read-out: L. Don. % inhibition): 29%
- pIC50 [6]: 4.39
- inhibition at 0.8 µM ([2]; Trypanosoma cruzi, at 0.8 μM, read-out: T. Cruzi % inhibition): 0%
- pIC50 [12]: 6.80
- pIC50 [13]: 6.25
- SI Pf, antiplasmodial selectivity index = L6 IC50/P f. IC50 [3]: 510
- pIC50 [3, 18]: 7.10
- activity towards Trypanosoma brucei rhodesiense (in words) [4]: sub-micromolar
- pIC50 [4, 19]: 6.48

Compound: CCCCCNC1[C@@H]2[N+]3=C4C5=C(NCC[C@@]51[C@@H](O)[C@@H](Br)C2(O)O)C(=O)c1[nH]cc(c14)CC3 (stereo partly shown) [Compound 6, Aminopentane Discorhabdin C Dihydrate Adduct]
- pIC50 [6]: 6.09
- tumour cell line cytotoxicity / antitumour activity (in words) ([7]; NCI human tumour cell line panel): inactive
- tumour cell mean growth [7]: 100.67%
- SI Pf, antiplasmodial selectivity index = L6 IC50/P f. IC50 [3]: 3.2
- pIC50 [3, 18]: 6.60

Compound: Nc1nc(N)nc(Nc2ccc([As]3SCC(CO)S3)cc2)n1 (stereo not shown) [melarsoprol, reference compound]
- pIC50 [4, 17]: 8.00

- pIC50 ([1]; Leishmania donovani): 6.28
Compound: CCCCCCCCCCCCCCCCOP(=O)([O-])OCC[N+](C)(C)C [miltefosine, reference compound]

Compound: Cn1cnc(SC2[C@H]3C(=O)C=C4S[C@H]5C[C@]42C2=C(N5)C(=O)c4[nH]cc5c4C2=[N+]3CC5)c1C[C@H](N)C(=O)O (single isomer, unassigned; (+)) [Compound 12, (+)-discorhabdin H2]
- pIC50 ([1]; Leishmania donovani): 4.03
- pIC50 [6]: 4.77
- pIC50 ([2]; Trypanosoma cruzi): 4.20
- SI Pf, antiplasmodial selectivity index = L6 IC50/P f. IC50 [3]: 1.4
- pIC50 [3, 18]: 4.92
- pIC50 [4, 19]: 5.64

- pIC50 ([3]; Plasmodium falciparum, K1, mean of duplicate assays, read-out: P. Falc. K1 IC50): 7.05
Compound: O=C1C2=C3C4=[N+](CCc5c[nH]c1c54)C1(O)CCC3(CCN2)CC1 [Compound 7, Discorhabdin C Hydrogenation Product]
- pIC50 ([6]; L6 rat skeletal myoblast cells): 5.77
- tumour cell mean growth [7]: 99.57%
- SI Pf, antiplasmodial selectivity index = L6 IC50/P f. IC50 [3]: 19

Compound: CSC1=CC(=O)C(Br)=C[C@]12C=CNC1=C2C2=NCCc3cn(C)c(c32)C1=O [Compound 16]
- pIC50 [6]: 5.21
- SI Pf, antiplasmodial selectivity index = L6 IC50/P f. IC50 [3]: 3.6
- pIC50 [3, 18]: 5.77

Compound: COc1cc([C@@H]2c3cc4c(cc3[C@H](O)[C@H]3COC(=O)[C@H]23)OCO4)cc(OC)c1OC [podophyllotoxin, reference compound]
- pIC50 [6]: 8.00

Compound: CCN(CC)CCCC(C)Nc1ccnc2cc(Cl)ccc12 (stereo not shown) [chloroquine, reference compound]
- pIC50 [3, 18]: 6.70

Compound: O=C1C(Br)=CC2(C=C1Br)CCNC1=C2C2=NCCc3cn(C4C5[N+]6=C7C8=C(NCCC84C(O)C(Br)C5(O)O)C(=O)c4[nH]cc(c47)CC6)c(c32)C1=O (stereo not shown) [Compound 8]
- pIC50 ([1]; Leishmania donovani): 4.73
- pIC50 [6]: 5.68
- pIC50 ([2]; Trypanosoma cruzi): 4.95
- SI Pf, antiplasmodial selectivity index = L6 IC50/P f. IC50 [3]: 0.3
- pIC50 [3, 18]: 5.19
- activity towards Trypanosoma brucei rhodesiense (in words) [4]: sub-micromolar
- pIC50 [4, 19]: 6.15

- pIC50 ([2]; Trypanosoma cruzi): 5.87
Compound: O=C(Cn1ccnc1[N+](=O)[O-])NCc1ccccc1 [benznidazole, reference compound]
